Measured values published in paper PMC8858294, “Impact of distant peptide substrate residues on enzymatic activity of SlyD” (Cellular and Molecular Life Sciences: CMLS, 2022).
Ends that are not written are not given here.

Key:
[1] = biological target: T1, SlyD^WT IF (chaperone) domain (Thermus thermophilus, UniProt Q5SLE7); assay: biochemical; assay type: binding
T1 sequence (Q5SLE7 70-117): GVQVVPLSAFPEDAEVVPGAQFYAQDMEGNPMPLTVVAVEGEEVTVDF
Method: (§1) ITC was measured using MicroCal VP-ITC calorimeter (Malvern) and analysed with MicroCal ITC-ORIGIN Analysis Software. First 1 × 3 µl and then 42 × 6.5 µl of 1.2 mM peptides dissolved in 20 mM HEPES (pH 7.5) and 100 mM NaCl were injected every 240 s from the syringe into the cell containing 50 µM SlyD at 25 °C. The resulting isotherms were fitted with one binding site model in case of SlyDΔIF construct and with two binding site model in case of the wild-type SlyD.

[2] = biological target: T2, SlyD^WT FKBP (PPIase) domain (Thermus thermophilus, UniProt Q5SLE7); assay: biochemical; assay type: binding
T2 sequence (Q5SLE7 1-149): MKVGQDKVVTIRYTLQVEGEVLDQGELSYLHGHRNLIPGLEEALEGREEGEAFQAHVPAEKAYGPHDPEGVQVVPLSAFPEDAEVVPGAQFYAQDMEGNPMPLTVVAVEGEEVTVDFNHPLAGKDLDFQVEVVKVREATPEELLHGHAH
Method: as §1

[3] = tested on: SlyD^WT FKBP (PPIase) domain; assay: biochemical; assay type: binding, Thermus thermophilus; details: ITC, SlyD^WT and SlyDΔIF
Method: as §1

SlyD^WT = assay: Label-free 1H NMR lineshape prolyl isomerase activity assay with SlyD^WT; assay type: biochemical, Thermus thermophilus; details: for kcat/KM (SlyD^WT): 1H NMR lineshape analysis, 100 µM peptide, 0 to 6 µM enzyme, 25 °C, 20 mM HEPES, 100 mM NaCl, pH 7.5, linear regression of exchange rate vs enzyme concentration, technical triplicates, error one standard deviation
Method: (§2) ^1H NMR spectra of 100 µM peptide samples in 20 mM HEPES, 100 mM NaCl, pH 7.5 were acquired on a Bruker Avance III NMR-spectrometer at 25 °C and different concentrations of enzyme (0 to 6 µM). Samples contained 10% (v/v) D2O and 0.5 mM TCEP. Spectra have been corrected by subtracting identically measured and processed spectra of enzyme only samples, in order to rule out any influence of signals from the enzymes. Spectra were processed using Topspin (Bruker, Inc) and analyzed in MATLAB (mathworks). […] The obtained relative line broadening of the cis and trans signals of methyl group I, is caused by chemical exchange between the two forms and depends on the population of the cis and trans forms, their chemical shift difference (which are both known from experiments without enzyme) and the apparent exchange rate which was derived from the fit. Errors in the fitted parameters were estimated using Monte-Carlo simulations; the reported errors correspond to one standard deviation.
(§3) Tetrapeptides terminally fused with fluorophores sensitive to proline isomerization have been routinely used to study the activity of peptidyl-prolyl cis–trans isomerases, such as SlyD [11]. […] Studying longer peptides usually requires 2D NMR spectroscopy, often in combination with ^13C labeling, in order to detect separate signals for the cis and trans state. […] This approach, which was initially developed for chemically modified tetrapeptides, relies only on the interaction of a leucine residue upstream of the proline (i − 1) and a phenylalanine residue downstream of the proline (i + 1). The different orientations of the leucine and phenylalanine residues in cis and trans proline conformations give rise to different signals for one of the leucine methyl groups (I), while the other methyl group (II) is mostly unaffected (Fig. 2A). At the same time, the impact of the proline cis/trans conformation on the leucine methyl groups is not dependent on the length of the peptide. The only requirement for the design of the peptide substrate is the absence of additional leucine, isoleucine or valine residues that could interfere with the NMR signals of interest. The linewidth of the signals is affected by the enzymatic turnover rate, which itself is dependent on the enzyme concentration (Fig. 2A). The enzymatic activity (kcat/KM) is then determined by the linear regression of the determined rate at various enzyme concentrations at a fixed substrate concentration below KM (Fig. 2B and SI Fig. 1).

SlyDΔIF [4] = biological target: T3, SlyDΔIF (Thermus thermophilus, UniProt Q5SLE7); assay: Label-free 1H NMR lineshape prolyl isomerase activity assay with SlyDΔIF; assay type: biochemical; details: 1H NMR lineshape analysis, 100 µM peptide, 0 to 6 µM enzyme, 25 °C, 20 mM HEPES, 100 mM NaCl, pH 7.5; linear regression of exchange rate vs enzyme concentration; technical triplicates; error one standard deviation
Method: as §2, §3

SlyDΔIF [5] = biological target: T3, SlyDΔIF; assay: ITC, peptide binding to SlyDΔIF (one binding site model); details: read-out: KD (SlyDΔIF), 1.2 mM peptide into 50 µM SlyD, 25 °C, 20 mM HEPES pH 7.5, 100 mM NaCl, ± error of fit
Method: as §1

| Substance | Kd [1] [µM] | Kd [2] [µM] | reduction in affinity compared to the psWT peptide [3] | kcat/KM (SlyD^WT) (SlyD^WT) [M⁻¹ s⁻¹] | kcat/KM (SlyDΔIF) (SlyDΔIF [4]) [M⁻¹ s⁻¹] | Kd (SlyDΔIF [5]) [µM] | increase of activity by the chaperone domain (factor, SlyD^WT vs SlyDΔIF) (SlyD^WT; 15-residue peptide at 100 µM, chaperone domain occupied) |
| --- | --- | --- | --- | --- | --- | --- | --- |
| H-TRYENAKMLPFAFGA-OH [W4E] | 0.86 ± 0.02 | 13.9 ± 0.9 | up to fivefold | 4.4e+06 ± 200000 | 900000 ± 200000 |  |  |
| H-TRYKNAKMLPFAFGA-OH [W4K] | 0.21 ± 0.01 | 3.2 ± 0.3 |  | 2.2e+06 ± 300000 | 3.5e+06 ± 700000 | 12.6 ± 0.8 |  |
| H-TRYWNAKMLPFAEGA-OH [F13E] | 1.15 ± 0.01 | 10.4 ± 0.5 | up to fivefold | 7e+06 ± 600000 | 100000 ± 100000 | 36.1 ± 0.8 |  |
| H-TRYWNAKMLPFAFGL-OH [A15L] | 0.16 ± 0.02 | 4.1 ± 0.1 |  |  |  | 14.8 ± 0.2 |  |
| H-TRYWNAKMLPFAFMA-OH [G14M] | 0.1 ± 0.01 | 2.2 ± 0.1 |  |  |  | 8.3 ± 0.5 |  |
| H-TRYWNAKMLPFAKGA-OH [F13K] | 0.11 ± 0.02 | 5.2 ± 0.2 |  | 3.4e+06 ± 100000 | 2.3e+06 ± 300000 | 20 ± 0.7 |  |
| R2A: psWT peptide substrate with mutation R2A (TAYWNAKMLPFAFGA) |  |  |  | 5.1e+06 ± 300000 | 1.3e+06 ± 200000 |  |  |
| TRAWNAKMLPFAFGA [Y3A] | 0.72 ± 0.1 | 17.3 ± 1.3 |  | 3.9e+06 ± 400000 | 2.5e+06 ± 300000 | 51.5 ± 8.6 |  |
| TRYANAKMLPFAFGA [W4A] | 0.75 ± 0.06 | 8.4 ± 0.4 |  | 2e+06 ± 200000 | 1.1e+06 ± 200000 |  |  |
| TRYWNAKALPFAFGA [M8A] | 0.24 ± 0.01 | 6 ± 0.1 |  | 7.7e+06 ± 900000 | 3.1e+06 ± 100000 | 19.4 ± 1 |  |
| TRYWNAKMLPFAAGA [F13A] | 0.38 ± 0.02 | 6.4 ± 0.3 |  | 3.1e+06 ± 100000 | 400000 ± 100000 | 22.7 ± 0.6 |  |
| TRYWNAKMLPFAFGA [psWT] | 0.22 ± 0.01 | 3.5 ± 0.1 |  | 4.9e+06 ± 300000 | 2.2e+06 ± 300000 | 15.6 ± 0.2 | 2.2 |
